Laboratory results from EP2819510B1, “ORGAN PERFUSION SYSTEM” (Rodos BioTarget GmbH, priority 2012, dated 2013).

Assays:
CYP3A4 = CYP3A4 (Homo sapiens, UniProt P08684); assay: CYP activity in perfused liver tissue, midazolam substrate
CYP2C9 = CYP2C9 (Homo sapiens, UniProt P11712); assay: CYP activity in perfused liver tissue, diclofenac substrate
[1] = initial 30-min interval, dropped continuously thereafter
[2] = late (1-6 h), cirrhotic vs. non-cirrhotic liver

Chain of CYP3A4 (P08684 whole entry, the tested form may be a part): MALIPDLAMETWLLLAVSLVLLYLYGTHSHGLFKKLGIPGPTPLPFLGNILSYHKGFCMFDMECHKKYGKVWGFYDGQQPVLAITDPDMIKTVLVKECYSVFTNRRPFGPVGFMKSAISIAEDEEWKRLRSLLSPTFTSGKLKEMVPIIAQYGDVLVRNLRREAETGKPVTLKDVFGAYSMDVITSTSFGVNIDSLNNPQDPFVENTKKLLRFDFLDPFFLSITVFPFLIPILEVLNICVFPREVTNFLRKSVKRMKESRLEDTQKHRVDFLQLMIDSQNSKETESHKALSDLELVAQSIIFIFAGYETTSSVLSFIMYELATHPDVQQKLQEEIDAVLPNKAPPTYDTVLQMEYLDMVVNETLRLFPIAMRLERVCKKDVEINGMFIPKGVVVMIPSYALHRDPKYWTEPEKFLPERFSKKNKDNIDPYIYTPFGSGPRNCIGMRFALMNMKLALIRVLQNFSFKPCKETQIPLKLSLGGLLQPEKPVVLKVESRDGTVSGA
Chain of CYP2C9 (P11712 whole entry, the tested form may be a part): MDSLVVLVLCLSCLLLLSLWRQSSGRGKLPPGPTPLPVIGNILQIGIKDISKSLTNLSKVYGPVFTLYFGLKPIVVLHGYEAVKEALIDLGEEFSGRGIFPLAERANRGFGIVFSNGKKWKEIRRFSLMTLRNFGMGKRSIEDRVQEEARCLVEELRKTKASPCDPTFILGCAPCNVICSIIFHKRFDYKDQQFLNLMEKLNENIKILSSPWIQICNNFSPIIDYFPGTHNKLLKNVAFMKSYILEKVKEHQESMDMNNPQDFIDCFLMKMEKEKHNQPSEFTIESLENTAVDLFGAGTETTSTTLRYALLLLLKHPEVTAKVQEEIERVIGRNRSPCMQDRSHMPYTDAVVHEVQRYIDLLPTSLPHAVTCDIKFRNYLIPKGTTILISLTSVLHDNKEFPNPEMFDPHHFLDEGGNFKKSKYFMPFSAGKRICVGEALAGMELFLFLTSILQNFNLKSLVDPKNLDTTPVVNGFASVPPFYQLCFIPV

| Structure (SMILES) | formation of phase-I metabolite (CYP3A4; [1]) | AUC of phase-I product, CL tissue higher than NC tissue (CYP3A4; [2]) [%] | formation of phase-I metabolite (CYP2C9; [1]) | AUC of phase-I product, CL tissue higher than NC tissue (CYP2C9; [2]) [%] |
| --- | --- | --- | --- | --- |
| OCc1ncc2n1-c1ccc(Cl)cc1C(c1ccccc1F)=NC2 [OH-midazolam, 1'-hydroxymidazolam] | formed quite rapidly | 53.8 | – | – |
| O=C(O)Cc1ccccc1Nc1c(Cl)cc(O)cc1Cl [OH-diclofenac, 4'-hydroxydiclofenac] | – | – | formed quite rapidly | 26.9 |
